# Results taken from US8865894B2, “Oxazolidin-2-one compounds and uses thereof” (Novartis AG, priority 2012, dated 2014).
# Like-named read-outs stand apart in the source and are kept apart here.
# Legend:
# [1] = molecular target: T1, human PI3Kbeta p110 catalytic subunit (Rat-1 pBABEpuro Myr-HA-hp110 beta) (Homo sapiens, UniProt P42338); experiment: Cellular assay PI3Kbeta (p-Akt(S473) SureFire, Rat-1_PI3beta cells); format: cell-based
# T1 construct: Myr (myristoylation signal) (N); HA (N); expressed in transfected cells; host or cells: Rat-1
# T1 sequence (P42338 whole entry): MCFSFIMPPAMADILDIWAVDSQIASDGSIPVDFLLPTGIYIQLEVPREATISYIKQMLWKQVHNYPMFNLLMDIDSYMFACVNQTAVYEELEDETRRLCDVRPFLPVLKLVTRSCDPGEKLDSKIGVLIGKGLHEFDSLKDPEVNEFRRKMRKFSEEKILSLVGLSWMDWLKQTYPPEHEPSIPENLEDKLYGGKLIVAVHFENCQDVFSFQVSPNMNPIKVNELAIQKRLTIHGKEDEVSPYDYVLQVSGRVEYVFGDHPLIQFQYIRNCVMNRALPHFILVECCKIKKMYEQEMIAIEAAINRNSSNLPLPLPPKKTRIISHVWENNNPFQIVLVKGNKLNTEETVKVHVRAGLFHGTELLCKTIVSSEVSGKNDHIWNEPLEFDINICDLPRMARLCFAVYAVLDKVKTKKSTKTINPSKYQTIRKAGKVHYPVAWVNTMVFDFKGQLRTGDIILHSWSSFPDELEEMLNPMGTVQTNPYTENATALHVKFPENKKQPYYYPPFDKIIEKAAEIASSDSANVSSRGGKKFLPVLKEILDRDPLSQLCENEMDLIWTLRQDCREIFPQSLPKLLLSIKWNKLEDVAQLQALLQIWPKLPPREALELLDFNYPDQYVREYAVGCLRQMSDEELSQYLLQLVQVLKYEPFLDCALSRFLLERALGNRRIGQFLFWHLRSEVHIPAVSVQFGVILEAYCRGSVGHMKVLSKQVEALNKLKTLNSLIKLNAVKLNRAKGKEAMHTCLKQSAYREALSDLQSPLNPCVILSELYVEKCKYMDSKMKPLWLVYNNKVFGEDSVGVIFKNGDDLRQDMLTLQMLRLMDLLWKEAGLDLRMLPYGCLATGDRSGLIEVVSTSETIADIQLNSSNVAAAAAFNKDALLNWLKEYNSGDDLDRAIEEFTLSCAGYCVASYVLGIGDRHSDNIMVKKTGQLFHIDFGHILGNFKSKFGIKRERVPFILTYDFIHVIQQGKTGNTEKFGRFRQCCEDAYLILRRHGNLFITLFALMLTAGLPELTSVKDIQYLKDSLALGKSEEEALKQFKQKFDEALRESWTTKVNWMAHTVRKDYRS
# T1 sequence (Q63787 whole entry partner): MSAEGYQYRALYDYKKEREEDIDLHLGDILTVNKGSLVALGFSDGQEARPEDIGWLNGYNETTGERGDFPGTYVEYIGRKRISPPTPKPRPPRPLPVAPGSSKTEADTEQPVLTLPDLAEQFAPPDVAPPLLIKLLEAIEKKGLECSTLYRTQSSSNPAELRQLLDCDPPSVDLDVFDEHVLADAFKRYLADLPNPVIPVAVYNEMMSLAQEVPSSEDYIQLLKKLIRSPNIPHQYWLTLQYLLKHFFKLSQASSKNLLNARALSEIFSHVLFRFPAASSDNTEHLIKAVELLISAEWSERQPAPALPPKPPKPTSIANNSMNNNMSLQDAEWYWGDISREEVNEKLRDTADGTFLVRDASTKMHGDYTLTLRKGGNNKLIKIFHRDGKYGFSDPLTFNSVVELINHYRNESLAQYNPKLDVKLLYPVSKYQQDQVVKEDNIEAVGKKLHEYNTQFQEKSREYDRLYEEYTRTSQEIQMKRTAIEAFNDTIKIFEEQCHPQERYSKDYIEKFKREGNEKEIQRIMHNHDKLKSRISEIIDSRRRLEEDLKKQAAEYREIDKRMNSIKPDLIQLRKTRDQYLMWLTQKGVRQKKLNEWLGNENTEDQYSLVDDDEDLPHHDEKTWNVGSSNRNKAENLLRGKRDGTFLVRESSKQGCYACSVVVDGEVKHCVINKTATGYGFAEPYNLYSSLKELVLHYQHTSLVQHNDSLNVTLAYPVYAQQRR
# From the text: (§1) AlphaScreen (Amplified Luminescent Proximity Homogeneous Assay, ALPHA, Perkin Elmer) is a non-radioactive bead-based proximity assay technology to study biomolecular interactions in a homogenous microtiter plate format. The brand name SureFire denotes AlphaScreen assays that are adapted to quantify the phosphorylation of endogenous cellular proteins in cell lysates, by using matched antibody pairs, which consist of an anti-phospho-kinase and an anti-kinase antibody. The assay allows characterization of kinase signaling in cells as well as measurement of kinase inhibitor effects. The AlphaScreen technology provides several advantages over standard assay techniques such as ELISA, as it avoids time-consuming washing procedures and reduces plate handling. Furthermore, it is miniaturizable at least to a 384-well format and provides sensitivity down to the femtomolar range, dependent on the affinity of the antibodies included in the individual AlphaScreen SureFire assay kit. High sensitivity is reached by an intrinsic amplification mechanism, which involves production of singlet oxygen molecules. SureFire assay kits are commercially available for specific targets and include pairs of validated antibodies (PerkinElmer). This report describes common procedures applied for AlphaScreen SureFire assays and respective semi-automated steps for routine kinase inhibitor profiling in cell-based assays.
# (§2) The Rat-1 cell lines stably overexpressing activated PI3K class I isoforms Rat-1 pBABEpuro Myr-HA-hp110 delta (Rat-1_PI3Kdelta) and Rat-1 pBABEpuro Myr-HA-hp110alpha (Rat-1_PI3Kalpha) and Rat-1 pBABEpuro Myr-HA-hp110 beta (Rat-1_PI3beta) were prepared as described (Maira S M, Stauffer F, Brueggen J, Furet P, Schnell C, Fritsch C, Brachmann S, Chène P, de Pover A, Schoemaker K, Fabbro D, Gabriel D, Simonen M, Murphy L, Finan P, Sellers W, García-Echeverría C (2008), Mol Cancer Ther. 7:1851-63 and Maira S M, Pecchi S, Brueggen J, Huh K, Schnell C, Fritsch C, Nagel T, Wiesmann M, Brachmann S, Dorsch M, Chène P, Schoemaker K, De Pover A, Menezes D, Fabbro D, Sellers W, García-Echeverría C, Voliva C F (2011), Mol. Cancer Ther., accepted). All cell lines were cultivated in complete growth medium (DMEM high glucose, 10% (v/v) fetal bovine serum, 1% (v/v) MEM NEAA, 10 mM HEPES, 2 mM L-glutamine, puromycin (10 μg/mL for Rat-1_PI3Kdelta and Rat-1_PI3Kalpha, 4 ug/mL for Rat-1_PI3beta), 1% (v/v) Pen/Strep) to 90% confluency at 37° C./5% CO2/90% humidity in a humidified CO2 incubator and were split twice a week.
# (§3) The following materials were used for p-AKT(S473) detection in Rat-1 cell lysates: Dulbecco's modified Eagle's medium (DMEM) high glucose (Gibco Invitrogen, Basel, Switzerland, Cat. No. 41965), Heat Inactivated Fetal Bovine Serum, Qualified (HI FBS; Gibco Invitrogen, Basel, Switzerland, Lot. No. 16140), MEM non essential amino acids (NEAA; Gibco Invitrogen, Basel, Switzerland, Cat. No. 11140), HEPES (Gibco Invitrogen, Basel, Switzerland, Cat. No. 15630), Penicillin/Streptomycin (Pen/Strep, 100×; Gibco Invitrogen, Basel, Switzerland, Cat. No. 15140-122), L-Glutamine (Gibco Invitrogen, Basel, Switzerland, Cat. No. 25030), Puromycin (Sigma Aldrich, Buchs, Switzerland, Cat. No. P9620), DMSO (MERCK, Dietikon, Switzerland, Cat. No. 8.02912.2500), H2O, MilliQ-H2O unless otherwise stated (MILLIPORE QGARDOOR1, Millipore, Zug, Switzerland), Bovine serum albumine (BSA; Sigma Aldrich, Buchs, Switzerland Cat. No. A8412), SureFire p-Akt 1/2 (Ser473) Assay Kit (PerkinElmer, Schwerzenbach, Switzerland, Cat. No. TGRAS50K).
# (§4) The p-Akt(S473) SureFire assay measures the phosphorylation of endogenous cellular Akt 1/2 at Ser473 in cell lysates. Using Rat-1 cells stably expressing myr-HA-tagged versions of the human PI3Kdelta, PI3Kalpha, or PI3Kbeta p110 catalytic subunit isoforms, the assay was developed as a two-plate protocol in a 384-well format.
# [2] = molecular target: T2, human PI3Kdelta p110 catalytic subunit (Rat-1 pBABEpuro Myr-HA-hp110 delta) (Homo sapiens, UniProt O00329); experiment: Cellular assay PI3Kdelta (p-Akt(S473) SureFire, Rat-1_PI3Kdelta cells); format: cell-based; conditions: 1 h compound treatment, read-out: Rat1-PI3Kd/ IC50
# T2 construct: Myr (myristoylation signal) (N); HA (N); expressed in transfected cells; host or cells: Rat-1
# T2 sequence (O00329 whole entry): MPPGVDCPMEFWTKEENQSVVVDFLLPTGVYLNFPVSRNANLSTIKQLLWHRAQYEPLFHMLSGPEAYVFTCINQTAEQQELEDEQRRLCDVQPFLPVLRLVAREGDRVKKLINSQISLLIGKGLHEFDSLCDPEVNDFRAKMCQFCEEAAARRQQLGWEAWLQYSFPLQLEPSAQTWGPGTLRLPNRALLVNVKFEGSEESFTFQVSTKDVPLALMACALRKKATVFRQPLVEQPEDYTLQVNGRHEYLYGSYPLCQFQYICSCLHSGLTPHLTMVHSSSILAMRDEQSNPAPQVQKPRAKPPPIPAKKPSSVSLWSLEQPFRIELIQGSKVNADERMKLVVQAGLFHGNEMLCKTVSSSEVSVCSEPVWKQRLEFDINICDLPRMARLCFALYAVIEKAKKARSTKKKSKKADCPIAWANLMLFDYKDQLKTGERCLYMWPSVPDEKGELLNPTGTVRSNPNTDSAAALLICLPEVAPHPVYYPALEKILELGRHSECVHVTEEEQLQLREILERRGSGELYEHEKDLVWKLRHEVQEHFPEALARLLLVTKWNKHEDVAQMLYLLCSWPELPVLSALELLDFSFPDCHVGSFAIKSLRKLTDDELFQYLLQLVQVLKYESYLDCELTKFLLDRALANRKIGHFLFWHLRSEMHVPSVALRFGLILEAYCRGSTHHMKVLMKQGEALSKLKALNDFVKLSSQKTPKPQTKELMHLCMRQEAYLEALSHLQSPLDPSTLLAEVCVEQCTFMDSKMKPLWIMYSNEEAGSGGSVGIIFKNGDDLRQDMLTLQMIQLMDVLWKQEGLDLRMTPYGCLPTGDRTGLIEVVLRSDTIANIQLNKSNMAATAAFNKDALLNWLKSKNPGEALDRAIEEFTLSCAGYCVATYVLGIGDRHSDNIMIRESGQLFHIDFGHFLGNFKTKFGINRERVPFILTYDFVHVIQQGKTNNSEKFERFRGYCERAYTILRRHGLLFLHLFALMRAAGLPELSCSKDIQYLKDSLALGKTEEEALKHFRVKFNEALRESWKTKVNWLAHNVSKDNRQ
# T2 sequence (Q63787 whole entry partner): as the sequence (Q63787 whole entry partner) above
# From the text: as §1, §2, §3, §4
# [3] = p-Akt(S473), 1 h compound treatment, read-out: Rat1-PI3Kb/ IC50
Compound,"IC50 [1, 3]",IC50 [2],"IC50 ([1]; fourth measurement, outlier, read-out: Rat1-PI3Kb IC50, fourth measurement (footnote))"
"C[C@H]1OC(=O)N(c2cc(-c3cnc(N)nc3C(F)(F)F)nc(N3CCOCC3)n2)[C@H]1COC=O [Example 12, Formic acid (4S,5R)-3-(2′-amino-2-morpholin-4-yl-4′-trifluoromethyl-[4,5′]bipyrimidinyl-6-yl)-5-methyl-2-oxo-oxazolidin-4-ylmethyl ester]",123 nM,92 nM,
"C[C@H]1COC(=O)N1c1cc(-c2cnc(N)nc2C(F)(F)F)nc(N2CCOCC2)n1 [Example 1, (S)-3-(2′-Amino-2-morpholin-4-yl-4′-trifluoromethyl-[4,5′]bipyrimidinyl-6-yl)-4-methyl-oxazolidin-2-one]",65 nM,27 nM,3900 nM
"CC1(C)OC(=O)N(c2cc(-c3cnc(N)nc3C(F)(F)F)nc(N3CCOCC3)n2)[C@H]1CO [Example 2, (S)-3-(2′-Amino-2-morpholin-4-yl-4′-trifluoromethyl-[4,5′]bipyrimidinyl-6-yl)-4-hydroxymethyl-5,5-dimethyl-oxazolidin-2-one]",278 nM,81 nM,
[2H]C1([2H])OC([2H])([2H])C([2H])([2H])N(c2nc(-c3cnc(N)nc3C(F)(F)F)cc(N3C(=O)O[C@H](C)[C@@H]3CO)n2)C1([2H])[2H] [Example 8],108 nM,54 nM,
"Nc1ncc(-c2cc(N3C[C@@H](CO)OC3=O)nc(N3CCOCC3)n2)c(C(F)(F)F)n1 [Example 14, (S)-3-(2′-Amino-2-morpholin-4-yl-4′-trifluoromethyl-[4,5′]bipyrimidinyl-6-yl)-5-hydroxymethyl-oxazolidin-2-one]",157 nM,101 nM,
"[2H]C1([2H])OC([2H])([2H])C([2H])([2H])N(c2nc(-c3cnc(N)nc3C(F)(F)F)cc(N3C(=O)OC[C@@H]3C)n2)C1([2H])[2H] [Example 17, (S)-3-(2′-amino-2-D8-morpholino-4′-(trifluoromethyl)-[4,5′-bipyrimidin]-6-yl)-4-methyloxazolidin-2-one]",171 nM,155 nM,
"C[C@H]1OC(=O)N(c2cc(-c3cnc(N)nc3C(F)(F)F)nc(N3CCOCC3)n2)[C@H]1CO [Example 18, (4S,5R)-3-(2′-Amino-2-morpholin-4-yl-4′-trifluoromethyl-[4,5′]bipyrimidinyl-6-yl)-4-hydroxymethyl-5-methyl-oxazolidin-2-one]",88 nM,28 nM,
"Nc1ncc(-c2cc(N3CCOC3=O)nc(N3CCOCC3)n2)c(C(F)(F)F)n1 [Example 11, 3-(2′-Amino-2-morpholin-4-yl-4′-trifluoromethyl-[4,5′]bipyrimidinyl-6-yl)-oxazolidin-2-one, reference compound]",184 nM,138 nM,
C[C@@H]1OC(=O)N(c2cc(-c3cnc(N)nc3C(F)(F)F)nc(N3CCOCC3)n2)[C@H]1CO [Example 6],147 nM,37 nM,
"C[C@H]1CN(c2cc(-c3cnc(N)nc3C(F)(F)F)nc(N3CCOCC3)n2)C(=O)O1 [Example 16, (S)-3-(2′-Amino-2-morpholin-4-yl-4′-trifluoromethyl-[4,5′]bipyrimidinyl-6-yl)-5-methyl-oxazolidin-2-one]",160 nM,87 nM,
"Nc1ncc(-c2cc(N3C(=O)O[C@H]4CCCC[C@@H]43)nc(N3CCOCC3)n2)c(C(F)(F)F)n1 [Example 4, (3aS,7aS)-3-(2′-Amino-2-morpholin-4-yl-4′-trifluoromethyl-[4,5′]bipyrimidinyl-6-yl)-hexahydro-benzooxazol-2-one]",183 nM,13 nM,
"CC1(CO)COC(=O)N1c1cc(-c2cnc(N)nc2C(F)(F)F)nc(N2CCOCC2)n1 (racemic) [Example 3, 3-(2′-amino-2-morpholino-4′-(trifluoromethyl)-4,5′-bipyrimidin-6-yl)-4-(hydroxymethyl)-4-methyloxazolidin-2-one]",193 nM,73 nM,
"C[C@H]1[C@@H](CO)OC(=O)N1c1cc(-c2cnc(N)nc2C(F)(F)F)nc(N2CCOCC2)n1 [Example 19, (4S,5S)-3-(2′-Amino-2-morpholin-4-yl-4′-trifluoromethyl-[4,5′]bipyrimidinyl-6-yl)-5-hydroxymethyl-4-methyl-oxazolidin-2-one]",71 nM,34 nM,
"C[C@H]1[C@H](CO)OC(=O)N1c1cc(-c2cnc(N)nc2C(F)(F)F)nc(N2CCOCC2)n1 [Example 15, (4S,5R)-3-(2′-Amino-2-morpholin-4-yl-4′-trifluoromethyl-[4,5′]bipyrimidinyl-6-yl)-5-hydroxymethyl-4-methyl-oxazolidin-2-one]",114 nM,53 nM,
"Nc1ncc(-c2cc(N3C(=O)OC[C@@H]3CCO)nc(N3CCOCC3)n2)c(C(F)(F)F)n1 [Example 9, (S)-3-(2′-Amino-2-morpholin-4-yl-4′-trifluoromethyl-[4,5′]bipyrimidinyl-6-yl)-4-(2-hydroxy-ethyl)-oxazolidin-2-one]",226 nM,78 nM,

# Other lines, results leading:
"IC50 [1, 3]",IC50 [2],"IC50 ([1]; fourth measurement, outlier, read-out: Rat1-PI3Kb IC50, fourth measurement (footnote))",Compound
125 nM,5 nM,,"Nc1ncc(-c2cc(N3C(=O)OC4C(O)CCC43)nc(N3CCOCC3)n2)c(C(F)(F)F)n1 (single isomer, unassigned) [Example 22B]"
75 nM,11 nM,,"C[C@H]1C(CC(C)(C)O)OC(=O)N1c1cc(-c2cnc(N)nc2C(F)(F)F)nc(N2CCOCC2)n1 (mixture of isomers) [Example 26, (4S,5R)- and (4S,5S)-3-(2′-amino-2-morpholino-4′-(trifluoromethyl)-[4,5′-bipyrimidin]-6-yl)-5-(2-hydroxy-2-methylpropyl)-4-methyloxazolidin-2-one]"
46 nM,61 nM,,"Nc1ncc(-c2cc(N3C(=O)O[C@H]4COC[C@H]43)nc(N3CCOCC3)n2)c(C(F)(F)F)n1 [Example 21, (3aR,6aR)-3-(2′-amino-2-morpholino-4′-(trifluoromethyl)-[4,5′-bipyrimidin]-6-yl)-tetrahydrofuro[3,4-d]oxazol-2(3H)-one]"
27 nM,16 nM,,"C[C@H]1[C@@H](CCO)OC(=O)N1c1cc(-c2cnc(N)nc2C(F)(F)F)nc(N2CCOCC2)n1 [Example 23, (4S,5R)-3-(2′-Amino-2-morpholino-4′-(trifluoromethyl)-[4,5′-bipyrimidin]-6-yl)-5-(2-hydroxyethyl)-4-methyloxazolidin-2-one]"
60 nM,27 nM,,"Nc1ncc(-c2cc(N3C(=O)OC4C(O)CCC43)nc(N3CCOCC3)n2)c(C(F)(F)F)n1 (single isomer, unassigned) [Example 22A]"
34 nM,7 nM,,"C[C@@H](O)C[C@H]1OC(=O)N(c2cc(-c3cnc(N)nc3C(F)(F)F)nc(N3CCOCC3)n2)[C@H]1C (single isomer, unassigned) [Example 24]"
43 nM,13 nM,,"C[C@H](O)CC1OC(=O)N(c2cc(-c3cnc(N)nc3C(F)(F)F)nc(N3CCOCC3)n2)[C@H]1C (single isomer, unassigned) [Example 25]"
